According to ChEMBL document CHEMBL1125671, “Synthesis and antiviral activity of enantiomeric forms of cyclobutyl nucleoside analogues” (1991):

How the values were obtained:
Assay type in all cases: functional
[1] = test system: Human alphaherpesvirus 2; test: compound was tested for antiherpes activity against HSV-2(186) in tissue culture by plaque reduction assay; details: read-out: ID50 (the source's name)
[2] = test system: Mus musculus; test: Mean day of death for total no. of dead mouse at 12.5 mg/kg/day dose
[3] = test system: Human alphaherpesvirus 3; test: compound was tested for antiherpes activity against VZV(Ellen) in tissue culture by plaque reduction assay; details: read-out: ID50 (the source's name)
[4] = test system: Mus musculus; test: Subcutaneous efficacy in a mouse cytomegalovirus infection at 25 mg/kg/day dose; Value expressed as survivors/total tested = 9/10
[5] = test system: Mus musculus; test: Mean day of death for total no. of dead mouse at 25 mg/kg/day dose
[6] = test system: Mus musculus; test: Mean day of death for total no. of dead mouse at 50 mg/kg/day dose
[7] = test system: Mus musculus; test: subcutaneous efficacy of compound in a lethal MCMV infection on mouse; details: sc, read-out: PD50
[8] = test system: Mus musculus; test: Subcutaneous efficacy in a mouse cytomegalovirus infection at 50 mg/kg/day; Value expressed as survivors/total tested = 9/10
[9] = test system: Murid betaherpesvirus 1; test: compound was tested for antiherpes activity against MCMV(Smith) in tissue culture by plaque reduction assay; details: read-out: ID50 (the source's name)
[10] = test system: Mus musculus; test: Subcutaneous efficacy in a mouse cytomegalovirus infection at 100 mg/kg/day dose; Value expressed as survivors/total tested = 10/10
[11] = test system: Mus musculus; test: Subcutaneous efficacy in a mouse cytomegalovirus infection at 12.5 mg/kg/day dose; Value expressed as survivors/total tested = 5/10
[12] = test system: Human alphaherpesvirus 1; test: compound was tested for antiherpes activity against HSV-1(Schooler) in tissue culture by plaque reduction assay; details: read-out: ID50 (the source's name)
[13] = test system: Human betaherpesvirus 5; test: compound was tested for antiherpes activity against HCMV(AD 169) in tissue culture by plaque reduction assay; details: read-out: ID50 (the source's name)
[14] = test system: Mus musculus; test: oral efficacy in a mouse cytomegalovirus infection at 100 mg/kg/day dose; Value expressed as survivors/total tested = 10/10
[15] = test system: Mus musculus; test: oral efficacy in a mouse cytomegalovirus infection at 50 mg/kg/day dose; Value expressed as survivors/total tested = 6/10
[16] = test system: Mus musculus; test: Subcutaneous efficacy in a mouse cytomegalovirus infection at 25 mg/kg/day dose; Value expressed as survivors/total tested = 10/10
[17] = test system: Mus musculus; test: Subcutaneous efficacy in a mouse cytomegalovirus infection at 50 mg/kg/day dose; Value expressed as survivors/total tested = 10/10
[18] = test system: Mus musculus; test: oral efficacy in a mouse cytomegalovirus infection at 25 mg/kg/day dose; Value expressed as survivors/total tested = 3/10
[19] = test system: Mus musculus; test: Mean day of death for total no. of dead mouse at 12.5 mg/kg/day dosep<0.05
[20] = test system: Mus musculus; test: oral efficacy in a mouse cytomegalovirus infection at 12.5 mg/kg/day dose; Value expressed as survivors/total tested = 1/10
[21] = test system: Mus musculus; test: Subcutaneous efficacy in a mouse cytomegalovirus infection at 12.5 mg/kg/day dose; Value expressed as survivors/total tested = 4/10
[22] = test system: Mus musculus; test: Subcutaneous efficacy in a mouse cytomegalovirus infection at 6.3 mg/kg/day dose; Value expressed as survivors/total tested = 4/10
[23] = test system: Mus musculus; test: Mean day of death for total no. of dead mouse at 6.3 mg/kg/day dose
[24] = test system: Mus musculus; test: Mean day of death for total no. of dead mouse at 25 mg/kg/day dosep<0.05
[25] = test system: Mus musculus; test: oral efficacy in a mouse cytomegalovirus infection at 25 mg/kg/day dose; Value expressed as survivors/total tested = 1/10
[26] = test system: Mus musculus; test: oral efficacy in a mouse cytomegalovirus infection at 50 mg/kg/day dose; Value expressed as survivors/total tested = 5/10
[27] = test system: Mus musculus; test: Subcutaneous efficacy in a mouse cytomegalovirus infection at 12.5 mg/kg/day dose; Value expressed as survivors/total tested = 7/10

Row | Compound | IC50 [1] [nM] | Mean day of death for total dead [2] | IC50 [3] [nM] | Mean day of death for total dead [6] | IC50 [9] [nM] | Survivors alive/total [10] | IC50 [12] [nM] | IC50 [13] [nM] | also measured
1 | Nc1nc(O)c2ncn(C3C[C@@H](CO)[C@@H]3CO)c2n1 (stereo partly specified) | 20 | 5.4 | 20 | 6 | 200 | 10 | 20 | 800 | Survivors alive/total [4]: 9; Mean day of death for total dead [5]: 4; ED50 [7]: 10 mg/kg/day; Survivors alive/total [8]: 9; Survivors alive/total [11]: 5
2 | Nc1ncnc2c1ncn2C1C[C@H](CO)C1CO (stereo partly specified) | > 400000 | – | > 400000 | – | – | – | > 400000 | > 400000 | –
3 | Nc1ncnc2c1ncn2C1C[C@@H](CO)[C@@H]1CO (stereo partly specified) | 2000 | 3.9 | 2000 | 6.3 | 800 | 10 | 2000 | < 400 | Mean day of death for total dead [5]: 3.6; Survivors alive/total [14]: 10; Survivors alive/total [15]: 6; Survivors alive/total [16]: 10; Survivors alive/total [17]: 10; Survivors alive/total [18]: 3; Mean day of death for total dead [19]: 8.8; Survivors alive/total [20]: 1; Survivors alive/total [21]: 4; Survivors alive/total [22]: 4; Mean day of death for total dead [23]: 4.4
4 | Nc1ncnc2c1ncn2C1CC(CO)C1CO (stereo unspecified) | 8000 | – | 2000 | – | 2000 | – | 8000 | 800 | –
5 | Nc1nc(O)c2ncn(C3CC(CO)C3CO)c2n1 (stereo unspecified) | 40 | – | 200 | – | 2000 | – | 80 | 4000 | –
6 | Nc1nc(O)c2ncn([C@H]3CC(CO)[C@@H]3CO)c2n1 (single isomer, unassigned) | > 377000 | – | > 377000 | – | – | – | > 377000 | > 377000 | –
7 | Nc1nc2c(ncn2COC(CO)CO)c(=O)[nH]1 [GANCICLOVIR] | 40 | 3.6 | 2000 | 4.4 | 4000 | 10 | 40 | 2000 | Survivors alive/total [16]: 10; Survivors alive/total [17]: 10; Mean day of death for total dead [24]: 4.8; Survivors alive/total [25]: 1; Survivors alive/total [26]: 5; Mean day of death for total dead [19]: 5.7; Survivors alive/total [20]: 1; Survivors alive/total [27]: 7
